In patent US20180110754A1, “CENICRIVIROC FOR THE TREATMENT OF FIBROSIS” (Tobira Therapeutics, Inc., priority 2015, published 2018):

How the values were obtained:
HIV-1 = test: Ex vivo intracellular HIV DNA qPCR in PBMCs of Study 202 participants; design: species or system human; conditions: EFV 600 mg, week 24
Description: Intracellular DNA qPCR. Total DNA was extracted, quantified, and stored at −80 C.
The Mann-Whitney test was used to analyze in vitro intracellular HIV DNA levels for all three treatment groups. All data were analyzed using Prism 5 software.

[1] = Study 202: treatment-emergent laboratory abnormalities (DAIDS grades; CPK, ALT, AST, bilirubin); type: in vivo; conditions: All CVC (N = 115), EFV (N = 28)
Description: The number of subjects with graded treatment-emergent laboratory abnormalities in selected liver parameters of interest is shown in Table 34. No Grade 4 ALT or AST elevations were observed. Except for one Grade 3 AST elevation, all ALT and AST elevations were Grade 1 or Grade 2. […] All abnormalities in bilirubin were Grade 1 or Grade 2. […]

O=C1Nc2ccc(Cl)cc2[C@@](C#CC2CC2)(C(F)(F)F)O1 [EFV, efavirenz, reference compound]
Full-length intracellular HIV DNA, mean fold-change from baseline (HIV-1): 0.825 fold | Strong-stop intracellular HIV DNA, mean fold-change from baseline (HIV-1): 1.01 fold | Any graded (Grade 1-4) treatment-emergent laboratory abnormality, n subjects [1]: 25 | Laboratory abnormality, worst Grade 1, n subjects [1]: 13 | Laboratory abnormality, worst Grade 2, n subjects [1]: 8 | Laboratory abnormality, worst Grade 3 (Any Grade 3 abnormality), n subjects [1]: 3 | Laboratory abnormality, worst Grade 4 (Any Grade 4 abnormality), n subjects [1]: 1 | ALT, worst Grade 1, n subjects ([1]; through Week 48): 2 | ALT, worst Grade 2, n subjects ([1]; through Week 48): 0 | ALT, worst Grade 3, n subjects ([1]; through Week 48): 0 | ALT, worst Grade 4, n subjects ([1]; through Week 48): 0 | AST, worst Grade 1, n subjects ([1]; through Week 48): 3 | AST, worst Grade 2, n subjects ([1]; through Week 48): 0 | AST, worst Grade 3, n subjects ([1]; through Week 48): 0 | AST, worst Grade 4, n subjects ([1]; through Week 48): 0 | Alanine aminotransferase (ALT) abnormality, any grade, n subjects ([1]; through Week 48): 2 | Any Grade 3 or Grade 4 laboratory abnormality, n subjects ([1]; through Week 48): 4 | Aspartate aminotransferase (AST) abnormality, any grade, n subjects ([1]; through Week 48): 3 | Aspartate aminotransferase (AST) increased (Grade 3 or 4), n subjects ([1]; through Week 48): 0 | Bilirubin abnormality, any grade, n subjects ([1]; through Week 48): 1 | Bilirubin, worst Grade 1, n subjects ([1]; through Week 48): 1 | Bilirubin, worst Grade 2, n subjects ([1]; through Week 48): 0 | Bilirubin, worst Grade 3, n subjects ([1]; through Week 48): 0 | Bilirubin, worst Grade 4, n subjects ([1]; through Week 48): 0 | CPK increased, worst Grade 3, n subjects ([1]; through Week 48): 2 | CPK increased, worst Grade 4, n subjects ([1]; through Week 48): 0 | Creatine phosphokinase (CPK) increased (Grade 3 or 4), n subjects ([1]; through Week 48): 2 | Fibrinogen decreased (Grade 3 or 4), n subjects ([1]; through Week 48): 0 | Fibrinogen decreased, worst Grade 3, n subjects ([1]; through Week 48): 0 | Fibrinogen decreased, worst Grade 4, n subjects ([1]; through Week 48): 0 | Hemoglobin decreased (Grade 3 or 4), n subjects ([1]; through Week 48): 0 | Hemoglobin decreased, worst Grade 3, n subjects ([1]; through Week 48): 0 | Hemoglobin decreased, worst Grade 4, n subjects ([1]; through Week 48): 0 | Neutrophils decreased (Grade 3 or 4), n subjects ([1]; through Week 48): 1 | Neutrophils decreased, worst Grade 3, n subjects ([1]; through Week 48): 0 | Neutrophils decreased, worst Grade 4, n subjects ([1]; through Week 48): 1 | Phosphate decreased (Grade 3 or 4), n subjects ([1]; through Week 48): 1 | Phosphate decreased, worst Grade 3, n subjects ([1]; through Week 48): 1 | Phosphate decreased, worst Grade 4, n subjects ([1]; through Week 48): 0 | Prothrombin time/INR increased, worst Grade 3, n subjects ([1]; through Week 48): 0 | Prothrombin time/INR increased, worst Grade 4, n subjects ([1]; through Week 48): 0 | Prothrombin time/international normalized ratio increased (Grade 3 or 4), n subjects ([1]; through Week 48): 0
